We go through 14 molecules from US7078403B1, “Antiviral agents” (Biota Scientific Management Pty Ltd., priority 1999, dated 2006).

The subject of series [1] is Human Rhinovirus strains 1B, 3, 4, 5, 6, 8, 9, 11, 12, 13, 16, 17, 21, 25, 30, 32, 33, 38, 39, 40, 42, 43, 45, 48, 52, 54, 56, 57, 59, 60, 63, 67, 68, 69, 72 …. Briefly: Standard CPE reduction assay against a panel of Human Rhinovirus strains. Format: cell-based.
Series [2] can be described thus: in vitro.
Series [3] concerns Enterovirus strains Poliovirus 2, Echoviruses 2, 3, 9, 21 and 30 and Coxsackie B3. Format: cell-based. As to conditions: all Enterovirus strains tested.
Series [4] has as its system Enterovirus 70. Briefly: Activity on Enterovirus 70 in mammalian cell culture assay. The series is classed as cell-based. As to conditions: Enterovirus D.
Series [5] concerns HRV type 2. In words: Inhibition of viral cytopathic effect (CPE), visual scoring or neutral red, HRV type 2 in KB cells. Format: cell-based, human rhinovirus. Conditions: for EC50: Enterovirus, read-out: Activity on Rhinovirus Type 2 EC50; for EC50 / Activity on Rhinovirus Type 2 EC50: HRV type 2 in KB cells, CPE inhibition; for Activity on Rhinovirus Type 2 SI: selectivity index = CC50 or MTC divided by EC50, HRV type 2, KB cells. (In general: Damage to the host cells serves as the signal in cytopathic effect assays.)

Series [6] is described as follows: in vitro. As to conditions: human.
The subject of series [7] is Coxsackie A21. Briefly: Activity on Coxsackie A21 in mammalian cell culture assay. Format: cell-based.
The nature of series [8]: in vitro. This is another data set of the same source.
Series [9] has as its system human embryo lung (MRC-5) cells. Briefly: Cytotoxicity (CC50 or MTC) in uninfected MRC-5 cells. Conditions: unit not given.
Series [10] has as its system HRV type 1A. Briefly: Inhibition of viral cytopathic effect (CPE), visual scoring or neutral red, HRV type 1A in MRC-5 cells. The series is classed as cell-based, human rhinovirus. As to conditions: for Activity on Rhinovirus Type 1A EC50: HRV type 1A in MRC-5 cells; for Activity on Rhinovirus Type 1A EC50 / EC50: CPE inhibition; for Activity on Rhinovirus Type 1A SI: selectivity index = CC50 or MTC divided by EC50, HRV type 1A, MRC-5 cells; for EC50: Enterovirus, MRC5, HRV type 1A in MRC-5 cells, read-out: Activity on Rhinovirus Type 1A EC50.

Series [11] concerns Rhinovirus Type 14. The series is classed as cell-based, human rhinovirus. As to conditions: for EC50: Enterovirus.
Series [12] deals with human embryo lung (MRC-5) cells.
Series [13] is described as follows: in vitro. As to conditions: mammalian cell culture (cell line not stated).
The subject of series [14] is HRV-2. Briefly: Time of addition study, CPE inhibition of HRV-2 in KB cells. Format: cell-based, human rhinovirus. Conditions: Rhinovirus A, read-out: EC50 (visual assay).
Setting [15] is: HRV14, HRV-14, read-out: Activity on Rhinovirus Type 14 EC50.
[16] abbreviates: mammalian cell culture (cell line not stated).

Molecules are shown by their SMILES. Converted amounts (≈) assume the structure as drawn. Like-named read-outs stand apart in the source and are kept apart here.

Usually EC50 stands for the concentration at which the effect is half-maximal. Take `CCO/N=C/c1ccc(OCCC2CCN(c3ccc(Cl)nn3)CC2)cc1` [Compound 1, 4-{2-[1-(6-Chloro-3-pyridazinyl)4-piperidinyl]ethoxy}benzaldehyde O-ethyloxime]: the “Inhibitory activity compared with Pirodavir” value in [1] (nearly all HRV strains tested) and in series [3] was “superior activity to Pirodavir” throughout. Moreover, the CC50 is more than 50 µg/mL in series [2], more than 1 µg/mL in series [6] and more than 50 µg/mL in series [8]. The EC50 in series [4] was 0.03 µg/mL (≈ 0.0771 µM); in series [5] it was less than 0.001 µg/mL; in [7], less than 0.000156 µg/mL. The “Activity on Rhinovirus Type 2 SI” value in series [5] is more than 1000.
As for `CCON=Cc1cc(C)c(OCCCc2cc(C)no2)c(C)c1` [Compound 24], in series [1] (HRV strains panel), the “Inhibitory activity compared with Pleconaril” value is on record as “superior activity to Pleconaril”. Moreover, the “Activity on Rhinovirus Type 1A MTC” value in [9] is listed as more than 50. In [5], the “Activity on Rhinovirus Type 2 EC50” value was less than 0.05 µg/mL and the “Activity on Rhinovirus Type 2 SI” value is listed as more than 500. For the same molecule, in series [10], the “Activity on Rhinovirus Type 1A EC50” value was less than 0.16 µg/mL and the “Activity on Rhinovirus Type 1A SI” value is given as more than 320.
As for `CON=Cc1ccc(OCCC2CCN(c3ccc(Cl)nn3)CC2)c(OC)c1` [Compound 33], the “Activity on Rhinovirus Type 14 EC50” value in series [11] (HRV-14) worked out at 0.0138 µg/mL. In series [9], the “Activity on Rhinovirus Type 1A MTC” value is listed as more than 1. Moreover, in series [5], the “Activity on Rhinovirus Type 2 EC50” value came to 0.04 µg/mL and the “Activity on Rhinovirus Type 2 SI” value is on record as more than 25. In series [10], the “Activity on Rhinovirus Type 1A EC50” value was found to be 0.014 µg/mL and the “Activity on Rhinovirus Type 1A SI” value is recorded as more than 72.4.
Regarding `CCON=Cc1ccc(OCCC2CCN(c3ccc(Cl)nn3)CC2)c(C)c1` [Compound 42], the “Activity on Rhinovirus Type 14 EC50” value in series [11] (HRV-14) came to 0.0111 µg/mL. Further, the “Activity on Rhinovirus Type 1A MTC” value in series [9] is reported as more than 1. Also, in series [5], the “Activity on Rhinovirus Type 2 EC50” value was determined as 0.006 µg/mL and the “Activity on Rhinovirus Type 2 SI” value is given as more than 167. For the same molecule, in series [10], the “Activity on Rhinovirus Type 1A EC50” value turned out to be 0.006 µg/mL and the “Activity on Rhinovirus Type 1A SI” value is reported as more than 177.8.
On to `CON=Cc1ccc(OCCC2CCN(c3ccc(Cl)nn3)CC2)c(C)c1` [Compound 44], for which, in series [11] (HRV-14), the “Activity on Rhinovirus Type 14 EC50” value amounted to 0.0194 µg/mL. In addition, in [9], the “Activity on Rhinovirus Type 1A MTC” value was more than 1. In series [5], the “Activity on Rhinovirus Type 2 EC50” value came to 0.026 µg/mL and the “Activity on Rhinovirus Type 2 SI” value is more than 38. For the same molecule, in series [10], the “Activity on Rhinovirus Type 1A EC50” value was less than 0.003 µg/mL and the “Activity on Rhinovirus Type 1A SI” value is reported as more than 312.
`CCO/N=C/c1cc(C)c(OCCCc2cc(-c3ccccc3)no2)c(C)c1` [Compound 127, 3,5-Dimethyl-[4-{3-(3-Phenyl-5-isoxazolyl)propoxy)]benzaldehyde O-ethyloxime]: the “Activity on Rhinovirus Type 1A MTC” value in series [12] is listed as more than 1. In series [10], the 50% effective concentration (EC50) was 0.329 µg/mL (≈ 0.869 µM) and the “Activity on Rhinovirus Type 1A SI” value is recorded as more than 3.
For `CCON=Cc1ccc(OCCC2CCN(c3ccc(C=O)nn3)CC2)cc1` [Compound 128, 4-(2-[1-(6-Formyl-3-pyridazinyl)-4-piperidinyl]ethoxy)benzaldehyde O-ethyloxime], in that order: more than 1, 0.063 µg/mL (≈ 0.165 µM) and more than 15.
`CCO/N=C/c1csc(OCCC2CCN(c3ccc(C)nn3)CC2)n1` [Compound 155, 2-(1-(6 methyl-3-pyridazinyl)-4-piperidinylethoxy)-thiazole-4-carboxaldehyde O-ethyl oxime]: the EC50 in series [11] (setting [15]) came out at 0.0138 µg/mL (≈ 0.0368 µM). Moreover, the CC50 in series [13] was more than 0.5 µg/mL.
As to `CCO/N=C/c1ccc(OCCC2CCN(c3nnc(C)s3)CC2)cc1` [Compound 158], in [11] (setting [15]), the EC50 was determined as 0.00095 µg/mL (≈ 0.00254 µM). Moreover, the CC50 in series [13] was more than 0.5 µg/mL.
For `CCO/N=C/c1ccc(OCCCCCN(C)c2ccc(Cl)nn2)cc1` [Compound 161] the same measures were 0.0348 µg/mL (≈ 0.0923 µM) and more than 0.5 µg/mL.
Turning to `CC(C)S(=O)(=O)n1c(N)nc2ccc(/C(=N/O)c3ccccc3)cc21` [Enviroxime], the EC50 is 0.21 µg/mL (≈ 0.586 µM) in series [4], 0.39 µg/mL (≈ 1.09 µM) in series [7] and 0.006 µg/mL (≈ 0.0167 µM) in series [10]. In addition, the “Activity on Rhinovirus Type 1A MTC” value in series [12] was determined as 0.49. Also, in series [10], the “Activity on Rhinovirus Type 1A SI” value stood at 75.91.
`CCOC(=O)c1ccc(OCCC2CCN(c3ccc(C)nn3)CC2)cc1` [Pirodavir, ethyl 4-[2-[1-(6-methyl-3-pyridazinyl)-4-piperidinyl]-ethoxy]benzoate]: the EC50 in series [5] is 0.003 µg/mL (≈ 0.00812 µM); in series [14] (HRV2, time of addition 0 hr), 0.004 µg/mL (≈ 0.0108 µM); in [14] (HRV2, time of addition 1 hr post-virus), 0.1 µg/mL (≈ 0.271 µM); in [14] (HRV2, time of addition 2 hr post-virus), more than 0.1 µg/mL; in series [14] (HRV2, time of addition 4 hr post-virus), more than 0.1 µg/mL; in series [14] (HRV2, time of addition 6 hr post-virus), more than 0.1 µg/mL. Further, the EC50 was more than 0.1 µg/mL in series [14] (HRV2, time of addition 8 hr post-virus); more than 0.1 µg/mL in series [14] (HRV2, time of addition 24 hr post-virus); 0.023 µg/mL (≈ 0.0623 µM) in series [14] (HRV2, time of addition −1 hr (pre-treatment)); 0.02 µg/mL (≈ 0.0541 µM) in [10]. Besides, in [5], the “Activity on Rhinovirus Type 2 SI” value is on record as more than 300. Also, the “Activity on Rhinovirus Type 1A MTC” value in series [12] was more than 10.00. Also, in [6], the CC50 was more than 1 µg/mL. Also, the “Activity on Rhinovirus Type 1A SI” value in series [10] turned out to be 555.74.
For `Cc1cc(CCCOc2c(C)cc(-c3noc(C(F)(F)F)n3)cc2C)on1` [Pleconaril, reference compound], the EC50 in [11] (HRV14, read-out: Activity on Rhinovirus Type 14 EC50) is 0.0608 µg/mL (≈ 0.159 µM). The molecule further displayed a CC50 in series [13] of more than 0.1 µg/mL.
Turning to `NC(=O)c1ncn([C@@H]2O[C@H](CO)[C@@H](O)[C@H]2O)n1` [Ribavirin], the CC50 in [2] (setting [16]) and in [8] (setting [16]) was more than 100 µg/mL each time. For the same molecule, the “Activity on Rhinovirus Type 1A MTC” value in series [9] came out at 98.3. Besides, the EC50 in series [4] is more than 100 µg/mL; in [7], more than 100 µg/mL; in [10], 1.93 µg/mL (≈ 7.9 µM). The “Activity on Rhinovirus Type 1A SI” value in series [10] is 51.03.
